Patent US20060223792A1, “Phenyl and pyridyl LTA4H modulators” (priority 2005, published 2006)
Structures can show the parent of a compound that is named as a salt. Where two headings read alike, the source gives them in different places.

Molecular target: T1, recombinant human LTA4 hydrolase (rhLTA4H) (Homo sapiens, UniProt P09960)
T1 construct: made in house; host or cells: Spodoptera frugiperda (Sf-9) cells, baculovirus (pFastBac1)
T1 sequence (P09960 1-611): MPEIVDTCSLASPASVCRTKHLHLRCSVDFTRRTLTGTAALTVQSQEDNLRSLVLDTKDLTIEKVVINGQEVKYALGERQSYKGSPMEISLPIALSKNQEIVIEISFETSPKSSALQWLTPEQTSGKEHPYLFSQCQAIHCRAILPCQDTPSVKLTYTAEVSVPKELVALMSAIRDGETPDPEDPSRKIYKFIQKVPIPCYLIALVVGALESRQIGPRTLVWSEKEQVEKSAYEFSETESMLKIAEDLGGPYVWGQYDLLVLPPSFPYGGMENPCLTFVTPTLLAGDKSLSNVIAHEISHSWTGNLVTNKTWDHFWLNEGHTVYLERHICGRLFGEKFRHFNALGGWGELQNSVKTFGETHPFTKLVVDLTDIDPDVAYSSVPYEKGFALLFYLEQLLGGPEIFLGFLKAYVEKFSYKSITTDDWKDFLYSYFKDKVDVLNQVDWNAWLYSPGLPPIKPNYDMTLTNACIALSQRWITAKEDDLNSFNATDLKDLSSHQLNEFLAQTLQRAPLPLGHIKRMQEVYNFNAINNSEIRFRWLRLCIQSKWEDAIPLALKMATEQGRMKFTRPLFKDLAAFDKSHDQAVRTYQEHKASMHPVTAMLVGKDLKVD
Assay: Recombinant human LTA4 hydrolase assay for LTA4 hydrolase inhibitor activity
Assay type: biochemical
Protocol: Recombinant Human LTA4 Hydrolase Assay for LTA4 Hydrolase Inhibitor Activity
Compounds of the present invention were tested for LTA4 hydrolase inhibitor activity against recombinant human LTA4 hydrolase (rhLTA4H). Vectors were prepared and used to express rhLTA4H essentially as follows: LTA4 hydrolase encoding DNA was amplified by polymerase chain reaction (PCR) using a human placental cDNA library as a template. Oligonucleotide primers for the PCR reaction were based on the 5′-end, and the complement of the 3′-end, of the published nucleotide sequence for the coding region of the human LTA4 hydrolase gene (C. D. Funk et al., Proc. Natl. Acad. Sci. USA 1987, 84:6677-6681). The amplified […] DNA fragment encoding LTA4 hydrolase was isolated and cloned into the pFastBac1 vector (Invitrogen). Recombinant baculovirus was generated as described by the manufacturer, and used to infect Spodoptera frugiperda (Sf-9) cells. Recombinant LTA4 hydrolase enzyme was purified from the infected Sf-9 cells essentially as described by J. K. Gierse et al. (Protein Expr. Purif. 1993, 4(5):358-366). The purified enzyme solution was adjusted to contain 0.29 mg/mL LTA4 hydrolase, 50 mM Tris (pH 8.0),150 mM NaCl, 5 mM dithiothreitol, 50% glycerol, and EDTA-free Complete protease inhibitor cocktail (Roche). The specific activity of the enzyme was about 3.8 μmol/min/mg.
LTA4 substrate was prepared from the methyl ester of LTA4 (Cayman Chemical) by treatment with 67 equiv. of NaOH under nitrogen at rt for 40 min. The LTA4 substrate in its free acid form was kept frozen at −80° C. until needed. Each compound was diluted to different concentrations in assay buffer (0.1 M potassium phosphate (pH 7.4), 5 mg/mL fatty acid free BSA) containing 10% DMSO. A 25-μL aliquot of each compound dilution was incubated for 10 min at rt with an equal volume of assay buffer containing 36 ng of recombinant human LTA4H. The solution was then adjusted to 200 μL with assay buffer. LTA4 (free acid) was thawed and diluted in assay buffer to a concentration of 357 ng/mL, and 25 μL (9 ng) of LTA4 substrate was added to the reaction mixture (total volume=225 μL) at time zero. Each reaction was carried out at rt for 10 min. The reaction was stopped by diluting 10 μL of the reaction mixture with 200 μL of assay buffer. LTB4 was quantifiedin the diluted sample by a commercially available enzyme-linked immunoassay (Cayman Chemical Co.), as recommended by the manufacturer. Positive controls, under essentially identical conditions but without addition of an inhibitor compound, and negative controls, containing all assay components except enzyme, were routinely run in each experiment. IC50 values were determined by fitting the activity data at different compound concentrations to a 4-parameter equation using the Grafit program (Erithacus software).
The IC50 values presented in the table below should be expected to fall within the typical three-fold variability of assays of this type. The values presented here are, in general, an average of one to three determinations.

[1] = recombinant human LTA4H, LTB4 quantified by enzyme-linked immunoassay, average of one to three determinations, read-out: IC50

## CCOC(=O)C1CCN(CCOc2ccc(OC(=O)N(C)c3cccc(O)c3)cc2)CC1 [Example 8, 1-(2-{4-[(3-Hydroxy-phenyl)-methyl-carbamoyloxy]-phenoxy}-ethyl)-piperidine-4-carboxylic acid ethyl ester]
[1]
  IC50: 100 nM

## CN(C(=O)Oc1ccc(OCCN2CCC(C(=O)O)CC2)cc1)c1cccc(O)c1 [Example 9, 1-(2-{4-[(3—hydroxy-phenyl)-methyl-carbamoyloxy]-phenoxy}-ethyl)-piperidine-4-carboxylic acid]
[1]
  IC50: 389 nM

## CN(C)C(=O)Oc1ccc(OCCN2CCC(O)(c3ccccc3)CC2)cc1 [Example 10, Dimethyl-carbamic acid 4-[2-(4-hydroxy-4-phenyl-piperidin-1-yl)-ethoxy]-phenyl ester]
[1]
  IC50: 52 nM

## O=C(Nc1ccc(OCCN2CCCCC2)cc1)Oc1ccccc1 [Example 14, [4-(2-Piperidin-1-yl-ethoxy)-phenyl]-carbamic acid phenyl ester hydrochloride]
  IC50: 1790 nM

## O=C(Nc1ccccc1)OCc1ccc(OCCN2CCCCC2)cc1 [Example 16, Phenyl-carbamic acid 4-(2-piperidin-1-yl-ethoxy)-benzyl ester]
[1]
  IC50: 352 nM

## O=C(Nc1ccccc1)Oc1ccc(CCN2CCC(O)(c3ccccc3)CC2)cc1 [Example 17, Phenyl-carbamic acid 4-[2-(4-hydroxy-4-phenyl-piperidin-1-yl)-ethyl]-phenyl ester]
[1]
  IC50: 33 nM

## CCOC(=O)C1CCCN(C2CCN(CCc3ccc(OCCc4ccccc4)cc3)CC2)C1 (centres unmarked) [Example 18, 1′-[2-(4-Phenethyloxy-phenyl)-ethyl]-[1,4]′bipiperidinyl-3-carboxylic acid ethyl ester]
[1]
  IC50: 100 nM

## O=C(O)C1CCCN(C2CCN(CCc3ccc(OCCc4ccccc4)cc3)CC2)C1 (centres unmarked) [Example 19, 1′-[2-(4-Phenethyloxy-phenyl)-ethyl]-[1,4′]bipiperidinyl-3-carboxylic acid]
[1]
  IC50: 223 nM

## O=C(Oc1ccccc1)Oc1ccc(OCCN2CCCCC2)cc1 [Example 20, Carbonic acid phenyl ester 4-(2-piperidin-1-yl-ethoxy)-phenyl ester]
[1]
  IC50: 1 nM

## O=C(Cc1ccccc1)Oc1ccc(OCCN2CCCCC2)cc1 [Example 21, Phenyl-acetic acid 4-(2-piperidin-1-yl-ethoxy)-phenyl ester]
[1]
  IC50: 1 nM

## CC(C(=O)Oc1ccc(OCCN2CCCCC2)cc1)c1ccccc1 (centres unmarked) [Example 22, 2-Phenyl-propionic acid 4-(2-piperidin-1-yl-ethoxy)-phenyl ester]
[1]
  IC50: 21 nM

## O=C(Oc1ccc(OCCN2CCCCC2)cc1)c1cc2ccccc2[nH]1 [Example 23, 1H-Indole-2-carboxylic acid 4-(2-piperidin-1-yl-ethoxy)-phenyl ester]
[1]
  IC50: 75 nM

## O=C(COc1ccc(CCN2CCC(N3CCCCC3=O)CC2)cc1)c1ccccc1 [Example 26, 1′-{2-[4-(2-Oxo-2-phenyl-ethoxy)-phenyl]-ethyl}-[1,4′]bipiperidinyl-2-one]
[1]
  IC50: 343 nM

## O=C1CCCCN1C1CCN(CCc2ccc(OCC(O)c3ccccc3)cc2)CC1 (centres unmarked) [Example 27, 1′-{2-[4-(2-Hydroxy-2-phenyl-ethoxy)-phenyl]-ethyl}-[1,4′]bipiperidinyl-2-one]
[1]
  IC50: 4 nM

## Oc1cccc(CCOc2ccc(OCCN3CCCCC3)cc2)c1 [Example 28, 3-{2-[4-(2-Piperidin-1-yl-ethoxy)-phenoxy]-ethyl}-phenol]
[1]
  IC50: 22 nM

## N#CC1CCN(CCc2ccc(OCCc3ccccc3)cc2)CC1 [Example 29, 1-[2-(4-Phenethyloxy-phenyl)-ethyl]-piperidine-4-carbonitrile]
[1]
  IC50: 55 nM

## c1ccc(CCOc2ccc(CCN3CCC(c4c[nH]nn4)CC3)cc2)cc1 [Example 31, 1-[2-(4-Phenethyloxy-phenyl)-ethyl]-4-(1H-[1,2,3]triazol-4-yl)-piperidine]
[1]
  IC50: 33 nM

## c1ccc(CCOc2ccc(CCNC3CC3)cc2)cc1 [Example 32, Cyclopropyl-[2-(4-phenethyloxy-phenyl)-ethyl]-amine]
[1]
  IC50: 177 nM

## N#CCCCN(CCc1ccc(OCCc2ccccc2)cc1)C1CC1 [Example 33, 4-{Cyclopropyl-[2-(4-phenethyloxy-phenyl)-ethyl]-amino}-butyronitrile]
[1]
  IC50: 49 nM

## O=C(Nc1ccccc1)Oc1ccc(CCCN2CCC(O)(c3ccccc3)CC2)cc1 [Example 36, Phenyl-carbamic acid 4-[3-(4-hydroxy-4-phenyl-piperidin-1-yl)-propyl]-phenyl ester]
[1]
  IC50: 5 nM

## O=C(Nc1ccccc1)Oc1ccc(CCCN2CCCCC2)cc1 [Example 37, Phenyl-carbamic acid 4-(3-piperidin-1-yl-propyl)-phenyl ester]
[1]
  IC50: 15 nM

## CCCN(CCCc1ccc(OC(=O)Nc2ccccc2)cc1)CC1CC1 [Example 38, Phenyl-carbamic acid 4-[3-(cyclopropylmethyl-propyl-amino)-propyl]-phenyl ester hydrochloride]
  IC50: 6 nM

## O=C(Nc1ccc(O)cc1)Oc1ccc(OCCN2CCC(O)(c3ccccc3)CC2)cc1 [Example 39, (4—hydroxy-phenyl)-carbamic acid 4-[2-(4-hydroxy-4-phenyl-piperidin-1-yl)-ethoxy]-phenyl ester]
[1]
  IC50: 0.4 nM

## CCCC1CCN(CCOc2ccc(OC(=O)Nc3ccccc3)cc2)CC1 [Example 41, Phenyl-carbamic acid 4-[2-(4-propyl-piperidin-1-yl)-ethoxy]-phenyl ester]
[1]
  IC50: 1 nM

## O=C(Nc1ccccc1)Oc1ccc(OCCCN2CCC(O)(c3ccccc3)CC2)cc1 [Example 42, Phenyl-carbamic acid 4-[3-(4-hydroxy-4-phenyl-piperidin-1-yl)-propoxy]-phenyl ester]
[1]
  IC50: 1 nM

## O=C(Nc1ccccc1F)Oc1ccc(OCCN2CCCCC2)cc1 [Example 43, (2-Fluoro-phenyl)-carbamic acid 4-(2-piperidin-1-yl-ethoxy)-phenyl ester]
[1]
  IC50: 7 nM

## O=C(Cc1ccc(OCCN2CCCCC2)cc1)Nc1ccccc1O [Example 44, N-(2—hydroxy-phenyl)-2-[4-(2-piperidin-1-yl-ethoxy)-phenyl]-acetamide]
[1]
  IC50: 64 nM

## O=C(Nc1cccc(Cl)c1)Oc1ccc(OCCN2CCCCC2)cc1 [Example 45, (3-Chloro-phenyl)-carbamic acid 4-(2-piperidin-1-yl-ethoxy)-phenyl ester]
[1]
  IC50: 64 nM

## CCN(CC)CCOc1ccc(OC(=O)Nc2ccccc2)cc1 [Example 46, Phenyl-carbamic acid 4-(2-diethylamino-ethoxy)-phenyl ester]
[1]
  IC50: 7 nM

## CCCN(CCOc1ccc(OC(=O)Nc2ccccc2)cc1)CC1CC1 [Example 49, Phenyl-carbamic acid 4-[2-(cyclopropylmethyl-propyl-amino)-ethoxy]-phenyl ester]
[1]
  IC50: 4 nM

## O=C(Nc1ccccc1)Oc1ccc(OCCN2CCC(Cc3ccccc3)CC2)cc1 [Example 50, Phenyl-carbamic acid 4-[2-(4-benzyl-piperidin-1-yl)-ethoxy]-phenyl ester]
[1]
  IC50: 21 nM

## O=C(Nc1ccccc1)Oc1ccc(OCCN2CCC(O)CC2)cc1 [Example 53, Phenyl-carbamic acid 4-[2-(4-hydroxy-piperidin-1-yl)-ethoxy]-phenyl ester]
[1]
  IC50: 3 nM
